In publication PMC8333425, “Discovery of a dual Ras and ARF6 inhibitor from a GPCR endocytosis screen” (Nature Communications, 2021):
Several values for one entry are separate records, joined by “and”; a condition that tells them apart may be missing. Equal entries are not always repeated.

Molecular target: K-Ras (Homo sapiens, UniProt P01116)
Assay: Ras BRET sensor in cells overexpressing WT K-Ras and AT1R
Format: cell-based
Parameters: expressed in transfected cells; host or cells: HEK293SL
Source text: Because Tyr32 and Tyr40, located on the switch I domain of Ras, are critical for stabilizing Rasarfin binding through interactions with both the chlorine and isopropyl moiety (Fig. 7a, c), we reasoned that substituting them for Ala residues would negatively impact Rasarfin’s inhibitory action on Ras. […] Because we wanted to assess the inhibitory action of Rasarfin over different Ras subtypes, we mutated the two tyrosine residues to an alanine in K-Ras (Y32A, Y40A, and Y32A/Y40A mutants) within the same Rasarfin binding site found in H-Ras (Lys^5-Thr^74). This domain and residues are perfectly conserved among the Ras family members[44],[45]. WT K-Ras and K-Ras mutants were overexpressed along with AT1R in cells and AngII-mediated activation of Ras was assessed using the Ras BRET sensor (Supplementary Fig. 11a).
HEK293SL cells were seeded at a density of 7.5 × 10^5 cells per 100-mm dish and 24 h later, transiently transfected as such. For receptor internalization experiments, cells were transfected with 0.12 μg AT1R-RlucII, B2R-RlucII, or β2AR-RlucII and 0.48 μg of either rGFP-CAAX (to assess removal from the PM) or rGFP-FYVE (to assess accumulation in the endosomes). For β-arrestin recruitment assays, cells were transfected with 0.48 μg of receptor-YFP along with 0.12 μg of β-arrestin-RlucII. […] For kinetics of β-arrestin recruitment or β-arrestin binding to receptor and AP-2 experiments, cells were serum starved for 30 min, pretreated with 21 (50 µM) or Barbadin (100 µM) for 30 min, stimulated with 100 nM AngII or 1 µM BK and BRET signals were monitored at indicated times using a Victor X Light plate reader (PerkinElmer). […] The BRET ratio was determined by calculating the ratio of the light emitted by YFP over the light emitted by the RlucII. […] For the kinetics of GTPase and PI3K/Akt activation, cells were serum starved, pretreated with 21 (50 µM) or Wortmannin (200 nM) for 30 min, stimulated with ligand (100 nM AngII or 100 ng/ml EGF) and BRET signals were monitored at indicated times. […]

K-Ras, sequence (P01116 1-188 isoform P01116-2): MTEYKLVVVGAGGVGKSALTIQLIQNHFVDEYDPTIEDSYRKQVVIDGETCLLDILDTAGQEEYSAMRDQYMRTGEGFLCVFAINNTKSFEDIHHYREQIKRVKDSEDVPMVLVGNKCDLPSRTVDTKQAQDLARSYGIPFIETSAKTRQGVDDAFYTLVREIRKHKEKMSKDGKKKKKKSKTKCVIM

In the case of `CC(C)C(=O)N1CCN(c2ccc(NC(=O)c3cc4ccccc4o3)cc2Cl)CC1` [Compound 21], the “AngII-mediated activation of WT K-Ras (Ras BRET sensor)” value (50 μM) is reported as “only WT was significantly inhibited by Rasarfin”, the “AngII-promoted BRET” value (Rasarfin 50 μM, K-Ras WT) is reported as 0.0405 and 0.05833 and 0.04947 and 0.058 and the “AngII-promoted BRET, Mean Diff. DMSO - Rasarfin” value (Rasarfin 50 μM, K-Ras WT, Bonferroni's multiple comparisons test) is reported as 0.04859.
